Results from paper PMC3931744, “Discovery of Selective Inhibitors of the Clostridium difficile Dehydroquinate Dehydratase” (PLoS ONE, 2014).
Values joined by “and” are separate entries in the source; they are usually repeats but may differ in a detail not shown here. Identical values can stand only once. Like-named read-outs stand apart in the source and are kept apart here.

Assays:
vcDHQD (type II DHQD) = target: T1, vcDHQD (type II DHQD) (Vibrio cholerae, UniProt Q9KV60); assay: vcDHQD inhibition, DHQD panel; type: biochemical
T1 sequence (Q9KV60 1-150): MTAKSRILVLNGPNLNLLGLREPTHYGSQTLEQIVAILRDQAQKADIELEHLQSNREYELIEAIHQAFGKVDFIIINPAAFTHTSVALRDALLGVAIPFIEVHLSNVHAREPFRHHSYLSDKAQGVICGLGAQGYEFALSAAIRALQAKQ

cdDHQD [1] = target: T2, cdDHQD (Clostridioides difficile, UniProt Q186A6); assay: biochemical
ypDHQD (type II DHQD) = ypDHQD (type II DHQD) (Yersinia pestis, UniProt Q8ZAX1); assay: biochemical
seDHQD [2] = target: T3, seDHQD (Salmonella typhimurium, UniProt P58687); assay: NMR line broadening with seDHQD; type: binding, Salmonella enterica; settings: similar compound concentrations; 10 µM DHQD, 100 µM compound
From the text: Supplementary Figure S2. NMR data for binding of compounds 1 and 2 to cdDHQD. (A) Line broadening observed for compound 1 upon addition of cdDHQD or seDHQD. (B) Line broadening observed for compound 2 upon addition of cdDHQD or seDHQD. […] Line widths were estimated using NMRDraw (Delaglio et al., 1995).

btDHQD (type II DHQD) = target: T4, btDHQD (type II DHQD) (Bacteroides thetaiotaomicron, UniProt Q8A3W2); assay: btDHQD inhibition, primary screen DHQD assay
T4 sequence (Q8A3W2 1-140): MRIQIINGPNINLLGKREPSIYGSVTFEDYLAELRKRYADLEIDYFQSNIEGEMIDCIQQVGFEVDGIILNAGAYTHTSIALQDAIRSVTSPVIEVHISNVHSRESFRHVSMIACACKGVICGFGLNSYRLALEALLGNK

cdDHQD [3] = target: T2, cdDHQD; settings: 10 µM DHQD, 100 µM compound
cdDHQD [4] = target: T2, cdDHQD; assay: biochemical; parameters: species or system Clostridium difficile
cdDHQD [5] = target: T2, cdDHQD; assay: biochemical; settings: Kd for binding to cdDHQD (WaterLOGSY), NMR titration; PBS pH 7.2, 25°C
seDHQD [6] = target: T3, seDHQD; assay: WaterLOGSY NMR titration with seDHQD; settings: Kd for binding to seDHQD (WaterLOGSY), PBS pH 7.2, 25°C
[7] = Kd for binding to cdDHQD (line broadening, double reciprocal plot), NMR, PBS pH 7.2, 25°C
[8] = Kd for binding to cdDHQD, fit of single resonances, NMR titration, two different resonances per compound (Figure 3A, 3B)
[9] = type II DHQD, read-out: IC50 vcDHQD
[10] = 200 µM compound, substrate up to 5 mM

T3 sequence (P58687 whole entry): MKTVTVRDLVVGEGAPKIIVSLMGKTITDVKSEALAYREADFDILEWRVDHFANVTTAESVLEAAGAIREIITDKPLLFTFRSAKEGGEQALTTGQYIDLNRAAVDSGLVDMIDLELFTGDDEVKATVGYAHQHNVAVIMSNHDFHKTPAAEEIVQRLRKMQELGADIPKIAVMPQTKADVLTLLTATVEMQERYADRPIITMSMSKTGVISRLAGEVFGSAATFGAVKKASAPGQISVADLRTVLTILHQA
Chain of ypDHQD (type II DHQD) (Q8ZAX1 whole entry, looked up): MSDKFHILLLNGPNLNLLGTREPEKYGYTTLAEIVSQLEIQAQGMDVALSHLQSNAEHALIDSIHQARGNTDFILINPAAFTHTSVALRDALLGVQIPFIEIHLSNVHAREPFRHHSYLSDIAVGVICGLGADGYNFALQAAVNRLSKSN
T2 sequence (Q186A6 whole entry): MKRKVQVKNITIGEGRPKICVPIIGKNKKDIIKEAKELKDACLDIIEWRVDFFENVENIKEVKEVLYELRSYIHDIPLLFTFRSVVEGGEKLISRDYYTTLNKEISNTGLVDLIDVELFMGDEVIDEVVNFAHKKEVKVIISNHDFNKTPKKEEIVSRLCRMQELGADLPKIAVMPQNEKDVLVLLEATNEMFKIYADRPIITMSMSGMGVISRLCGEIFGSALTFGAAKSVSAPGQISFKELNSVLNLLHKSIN

| SMILES | IC50 (vcDHQD (type II DHQD)) | Kd (cdDHQD [1]; [7]) | Kd (cdDHQD [1]; [8]) | IC50 (ypDHQD (type II DHQD)) | line broadening of compound resonances with seDHQD (seDHQD [2]) | IC50 (btDHQD (type II DHQD)) | line broadening of compound resonances with cdDHQD (cdDHQD [3]) | Ki (cdDHQD [4]) | IC50 (vcDHQD (type II DHQD); [9]) | Vmax in presence of inhibitor (cdDHQD [4]; [10]) | increase of apparent Km (cdDHQD [4]; [10]) | mechanism of inhibition (cdDHQD [4]; from Km/Vmax at high substrate) | Kd (cdDHQD [5]) | Kd (seDHQD [6]) |
| --- | --- | --- | --- | --- | --- | --- | --- | --- | --- | --- | --- | --- | --- | --- |
| COc1ccc2nc(NS(=O)(=O)c3cc(Cl)ccc3Cl)sc2c1 [Compound 2] | > 200 µM | ~25 µM | 15 µM and 34 µM | > 200 µM | < 1 Hz | > 200 µM | > 6 Hz | – | – | – | – | – | – | – |
| O=S(=O)(Nc1nc(-c2ccccc2)cs1)c1cc(Cl)ccc1Cl [Compound 1] | – | ~27 µM and ~25 µM | 35 µM and 18 µM | > 200 µM | < 1 Hz | > 200 µM | > 6 Hz | 11 to 15 µM | > 200 µM | – | – | – | – | – |
| O=C(O)c1ccccc1NC(=O)c1csc2c1CCCC2 [Compound 3] | – | – | – | > 200 µM | – | > 200 µM | – | 19 to 22 µM | > 200 µM | unchanged | 10 fold | competitive | ~65 µM and 67 µM | ~400 µM and ~390 µM |
